Results from patent US12729381B2, “Methods and compositions for inactivating interleukin-2-inducible t-cell kinase (ITK)” (priority 2020, dated 2026).
Non-standard residues stand in square brackets, D forms with d. No end group written: not given here. *: point of attachment. FITC = O=C1OC2(c3ccc(O)cc3Oc3cc(O)ccc32)c2ccc(NC(=S)*)cc21; pY = N[C@@H](Cc1ccc(OP(=O)(O)O)cc1)C(=O)O

Key:
SLP76: ITK signaling = assay: Western blot of signaling proteins in human T cells from PBMC stimulated with anti-CD3 (OKT3); assay type: cell-based; conditions: vs vehicle alone
Description: Western blotting: For protein analysis, T cells were either nonstimulated, or stimulated with anti-CD3 and anti-CD28 for 24 hours overnight, and were lysed with freshly prepared lysis buffer (RIPA Buffer (Fisher Scientific cat #PI89900)+cOmplete Protease Inhibitor Cocktail (Sigma-Aldrich; cat #11697498001)) and centrifuged for 10 minutes at 14000 rpm at 4° C. Protein aliquots of 70 μg of protein were loaded on a 12-18% denaturing polyacrylamide gel and transferred to nitrocellulose membranes for immunoblot analysis using antibodies specific to proteins of interest.
Human Samples: According to our IRB protocol (1140566-4), blood samples were obtained by vein puncture, and T cells were isolated from peripheral blood mononuclear cells (PBMC) of regular healthy donors. T cells were isolated from patient and healthy donor samples by Ficoll-Hypaque density centrifugation. The final product was resuspended at 3×10^6 cells/ml in media and stimulated with OKT-3/anti-CD3 ([…]; Ortho Bio-Tech) and anti-human CD28 ([…]; Biolegend; cat #302902) presence of […] of protamine sulfate and 1 mg/ml SLP76pTYR or vehicle for five minutes. T cell lysates were used in western blot analysis.
ITK deficiency is known to enhance the development of regulatory T cells (Tregs) (Elmore et al., 2020, Owen et al., 2019) so the peptide inhibitor was tested to determine whether inhibition of the ITK: SLP76Y145 interactions using SLP76pTYR would induce Tregs. First, the frequency of Tregs was examined by expression of CD4^+ and FoxP3^+ (FIG. 18A). Next, total mouse T cells were stimulated with anti-CD3 (Sugie et al., 2004) in the presence of either SLP76pTYR, nonspecific peptide, or vehicle alone for 5 to 24 hours, and cells were harvested and examined for the presence of Tregs (CD4^+CD25^+FoxP3^+). […] Next, the effects of SLP76pTYR peptide on human PBMC samples from healthy human patients was investigated. T cells from these patients were stimulated with anti-CD3 (OKT3) (Karimi et al., 2005) for 5 minutes in the presence of SLP76pTYR or vehicle alone. […] No differences in stimulated or unstimulated total human AKT (FIG. 18E and FIG. 28H) was observed, providing a showing that the SLP76pTYR peptide has an impact on signaling pathways downstream of SLP76 in both mouse and human T cells. […] Next, the ability of SLP76pTYR peptide to affect the production of proinflammatory cytokines in human PBMCs was investigated. T cells from healthy human were stimulated with anti-CD3 (OKT3) and anti-CD28 in the presence of SLP76pTYR or vehicle alone, along with Brefeldin A. T cells incubated with SLP76pTYR or vehicle alone were also examined in the presence of PMA+lonomycin and Brefeldin A for 6 hours.
More specifically, FIGS. 18A-18F depict Novel peptide SLP76pTYR specifically targets SLP76: ITK signaling and enhances Treg cell development. (FIG. 18A) Murine CD4^+ T cells were examine for total CD4+ and FOXP3 expression prior to treatment with SLP76pTYR. n=3, and one representative experiment is shown. (FIG. 18B) Total T cells stimulated in the presence of SLP76pTYR, nonspecific peptide, or vehicle alone were examined for total CD4 cells that are FoxP3^+. n=3, and one representative experiment is shown. (FIG. 18C) Quantification of three experiments as in (A) (FIG. 18D) Cell lysates were obtained from mouse T cells stimulated with anti-CD3 and anti-CD28 in the presence of SLP76pTYR, or vehicle alone. […]

human T cells = assay: Intracellular IFN-γ and TNF-α production by primary human T cells from PBMCs (flow cytometry); assay type: cell-based; conditions: anti-CD3/anti-CD28 with Brefeldin A, 6 hours; vs vehicle alone
Description: ITK deficiency is known to enhance the development of regulatory T cells (Tregs) (Elmore et al., 2020, Owen et al., 2019) so the peptide inhibitor was tested to determine whether inhibition of the ITK: SLP76Y145 interactions using SLP76pTYR would induce Tregs. First, the frequency of Tregs was examined by expression of CD4^+ and FoxP3^+ (FIG. 18A). Next, total mouse T cells were stimulated with anti-CD3 (Sugie et al., 2004) in the presence of either SLP76pTYR, nonspecific peptide, or vehicle alone for 5 to 24 hours, and cells were harvested and examined for the presence of Tregs (CD4^+CD25^+FoxP3^+). […] Next, the effects of SLP76pTYR peptide on human PBMC samples from healthy human patients was investigated. T cells from these patients were stimulated with anti-CD3 (OKT3) (Karimi et al., 2005) for 5 minutes in the presence of SLP76pTYR or vehicle alone. […]
More specifically, FIGS. 18A-18F depict Novel peptide SLP76pTYR specifically targets SLP76: ITK signaling and enhances Treg cell development. […] (FIG. 18C) Quantification of three experiments as in (A) (FIG. 18D) Cell lysates were obtained from mouse T cells stimulated with anti-CD3 and anti-CD28 in the presence of SLP76pTYR, or vehicle alone. […] Intracellular IFN-γ and TNF-α expression by CD8^+ and CD4+ T cells was determined by flow cytometry. […]

[1] = tested on: T cells from GVHD patient blood samples; assay: T cells from GVHD patient blood samples treated with SLP76pTYR; assay type: cell-based, human

## FITC Dye ^132NEEEEAPVEDDADpYEPPPSNDEEA^155-TAT ({FITC}-NEEEEAPVEDDAD[pY]EPPPSNDEEAGRKKRRQRRRPQ) [SLP76pTYR]
SLP76: ITK signaling; anti-CD3 (OKT3) for 5 minutes
  phosphorylation of ERK, stimulated: reduced phosphorylation of PLCγ1 and ERK
  phosphorylation of PLCγ1, stimulated: reduced phosphorylation of PLCγ1 and ERK
SLP76: ITK signaling; non-stimulated T cells
  non-stimulated phospho ERK: No differences in non-stimulated phospho PLCγ1 and ERK were observed
  non-stimulated phospho PLCγ1: No differences in non-stimulated phospho PLCγ1 and ERK were observed
SLP76: ITK signaling
  total AKT and stimulated or unstimulated phospho AKT: No differences in total AKT or either stimulated or unstimulated phospho AKT was observed
Human T cells
  IFN-γ production: significantly reduced IFN-γ and TNF-α production
  TNF-α production: significantly reduced IFN-γ and TNF-α production
[1]
  IFN-γ production: significantly reducing IFN-γ and TNF-αproduction
  TNF-α production: significantly reducing IFN-γ and TNF-αproduction
  development of FoxP3+ regulatory T cells: enhances the development of FoxP3^+ regulatory T cells
